ChEMBL document CHEMBL3763154, “Dispirocyclopropyldehydrocostus lactone selectively inhibits acute myelogenous leukemia cells” (Bioorg Med Chem Lett, 2016)
The source made the active and inactive calls. No cut-off for these calls is given here.

Tests used:
[1] = Induction of apoptosis in human KG1a cells assessed as upregulation of Bax expression at 2.5 to 10 uM after 24 hrs by Western blot analysis; assay type: functional, cell-based; conditions: KG-1a
[2] = tested on: KG-1a; assay: Induction of apoptosis in human KG1a cells assessed as late apoptotic cells at 50 uM after 24 hrs by Annexin V-FITC/PI staining based flow cytometry (Rvb=2.30%); assay type: functional
[3] = tested on: KG-1a; assay: Induction of apoptosis in human KG1a cells assessed as necrotic cells at 50 uM after 24 hrs by Annexin V-FITC/PI staining based flow cytometry (Rvb=0.227%); assay type: functional
[4] = Cytotoxicity against human hematopoietic stem cells after 24 hrs by MTT assay; assay type: cell-based
[5] = tested on: KG-1a; assay: Induction of apoptosis in human KG1a cells assessed as viable cells at 10 uM after 24 hrs by Annexin V-FITC/PI staining based flow cytometry (Rvb=95.1%); assay type: functional; conditions: read-out: Activity
[6] = tested on: KG-1a; assay: Induction of apoptosis in human KG1a cells assessed as early apoptotic cells at 10 uM after 24 hrs by Annexin V-FITC/PI staining based flow cytometry (Rvb=2.40%); assay type: functional
[7] = Cytotoxicity against human CD34-positive leukemia stem/progenitor AML cells assessed as cell viability at 5 uM after 18 hrs by annexin staining based assay; assay type: functional; conditions: read-out: Activity
[8] = Cytotoxicity against human CD38 deficient CD34-positive leukemia stem/progenitor AML cells assessed as cell viability at 10 uM after 18 hrs by annexin staining based assay; assay type: functional; conditions: read-out: Activity
[9] = Cytotoxicity against human HL60/ADR cells after 72 hrs by MTT assay; assay type: functional, cell-based
[10] = Cytotoxicity against human AML cells assessed as cell viability at 10 uM after 18 hrs by annexin staining based assay; assay type: functional; conditions: read-out: Activity
[11] = tested on: KG-1a; assay: Induction of apoptosis in human KG1a cells assessed as early apoptotic cells at 5 uM after 24 hrs by Annexin V-FITC/PI staining based flow cytometry (Rvb=2.40%); assay type: functional
[12] = tested on: KG-1a; assay: Induction of apoptosis in human KG1a cells assessed as early apoptotic cells at 20 uM after 24 hrs by Annexin V-FITC/PI staining based flow cytometry (Rvb=2.40%); assay type: functional
[13] = tested on: KG-1a; assay: Induction of apoptosis in human KG1a cells assessed as late apoptotic cells at 5 uM after 24 hrs by Annexin V-FITC/PI staining based flow cytometry (Rvb=2.30%); assay type: functional
[14] = tested on: KG-1a; assay: Induction of apoptosis in human KG1a cells assessed as early apoptotic cells at 50 uM after 24 hrs by Annexin V-FITC/PI staining based flow cytometry (Rvb=2.40%); assay type: functional
[15] = tested on: KG-1a; assay: Induction of apoptosis in human KG1a cells assessed as necrotic cells at 10 uM after 24 hrs by Annexin V-FITC/PI staining based flow cytometry (Rvb=0.227%); assay type: functional
[16] = tested on: KG-1a; assay: Induction of apoptosis in human KG1a cells assessed as late apoptotic cells at 20 uM after 24 hrs by Annexin V-FITC/PI staining based flow cytometry (Rvb=2.30%); assay type: functional
[17] = tested on: K562; assay: Cytotoxicity against human K562 cells after 72 hrs by MTT assay; assay type: functional, cell-based; conditions: K562, 72 h
[18] = tested on: KG-1a; assay: Induction of apoptosis in human KG1a cells assessed as viable cells at 20 uM after 24 hrs by Annexin V-FITC/PI staining based flow cytometry (Rvb=95.1%); assay type: functional; conditions: read-out: Activity
[19] = Aqueous solubility of compound; assay type: physicochemical; conditions: buffer
[20] = tested on: KG-1a; assay: Induction of apoptosis in human KG1a cells assessed as necrotic cells at 20 uM after 24 hrs by Annexin V-FITC/PI staining based flow cytometry (Rvb=0.227%); assay type: functional
[21] = Induction of apoptosis in human KG1a cells assessed as upregulation of PARP cleavage at 2.5 to 10 uM after 24 hrs by Western blot analysis; assay type: functional, cell-based; conditions: KG-1a
[22] = tested on: KG-1a; assay: Induction of apoptosis in human KG1a cells assessed as viable cells at 5 uM after 24 hrs by Annexin V-FITC/PI staining based flow cytometry (Rvb=95.1%); assay type: functional; conditions: read-out: Activity
[23] = tested on: KG-1a; assay: Induction of apoptosis in human KG1a cells assessed as necrotic cells at 5 uM after 24 hrs by Annexin V-FITC/PI staining based flow cytometry (Rvb=0.227%); assay type: functional
[24] = Cytotoxicity against human CD38 deficient CD34-positive leukemia stem/progenitor AML cells assessed as cell viability at 5 uM after 18 hrs by annexin staining based assay; assay type: functional; conditions: read-out: Activity
[25] = Induction of apoptosis in human KG1a cells assessed as upregulation of caspase 3 cleavage at 2.5 to 10 uM after 24 hrs by Western blot analysis; assay type: functional, cell-based; conditions: KG-1a
[26] = Cytotoxicity against human KG1a cells after 72 hrs by MTT assay; assay type: functional, cell-based; conditions: KG-1a
[27] = tested on: KG-1a; assay: Induction of apoptosis in human KG1a cells assessed as viable cells at 50 uM after 24 hrs by Annexin V-FITC/PI staining based flow cytometry (Rvb=95.1%); assay type: functional; conditions: read-out: Activity
[28] = Cytotoxicity against human K562/A02 cells after 72 hrs by MTT assay; assay type: functional, cell-based; conditions: K562/A02, 72 h
[29] = tested on: KG-1a; assay: Induction of apoptosis in human KG1a cells assessed as late apoptotic cells at 10 uM after 24 hrs by Annexin V-FITC/PI staining based flow cytometry (Rvb=2.30%); assay type: functional
[30] = Cytotoxicity against human CD34-positive leukemia stem/progenitor AML cells assessed as cell viability at 10 uM after 18 hrs by annexin staining based assay; assay type: functional; conditions: read-out: Activity
[31] = Induction of apoptosis in human KG1a cells assessed as upregulation of caspase 9 cleavage at 2.5 to 10 uM after 24 hrs by Western blot analysis; assay type: functional, cell-based; conditions: KG-1a
[32] = Cytotoxicity against human HL60 cells after 72 hrs by MTT assay; assay type: functional, cell-based; conditions: HL-60, 72 h
[33] = Cytotoxicity against human AML cells assessed as cell viability at 5 uM after 18 hrs by annexin staining based assay; assay type: functional; conditions: read-out: Activity
[34] = tested on: HL-60; assay: Selectivity index, ratio IC50 for human […] cells; assay type: functional
[35] = Selectivity index, ratio IC50 for human KG1a cells to IC50 for human HL60 cells; assay type: functional
[36] = tested on: KG-1a; assay: Antitumor activity against human KG1a cells xenografted in SCID mice assessed as reduction in tumor weight at 50 mg/kg, po administered every other day for 7 times measured after 1 month; assay type: functional, organism-based
[37] = tested on: Mus musculus; assay: Toxicity in SCID mouse xenografted with KG1a cells assessed as effect on body weight at 50 mg/kg, po administered every other day for 7 times; assay type: organism-based; conditions: in vivo
[38] = tested on: KG-1a; assay: Antitumor activity against human KG1a cells xenografted in SCID mice assessed as inhibition of tumor growth at 50 mg/kg, po administered every other day for 7 times; assay type: functional, organism-based

Question: For `C=C1C(=O)O[C@@H]2[C@@H]3[C@@H](CCC34CC4)C3(CC[C@@H]12)CC3`, which Activity [1] is on record?
Answer: Active

Question: What about the Activity [2] of the same compound?
Answer: 49%

Question: And the Activity [3]?
Answer: 4.71%

Question: And the IC50 [4]?
Answer: > 50 µM

Question: What about the viability at 10 µM [5] of the same compound?
Answer: 66.5%

Question: What about the Activity [6] of the same compound?
Answer: 23.3%

Question: What about the viability at 5 µM [7] of the same compound?
Answer: 42.2%

Question: What about the viability at 10 µM [8] of the same compound?
Answer: 0.46%

Question: What about the IC50 [9] of the same compound?
Answer: 6.7 µM

Question: And the viability at 10 µM [10]?
Answer: 6.5%

Question: And the Activity [11]?
Answer: 6.54%

Question: And the Activity [12]?
Answer: 49.9%

Question: What about the Activity [13] of the same compound?
Answer: 3.51%

Question: What about the Activity [14] of the same compound?
Answer: 45%

Question: What about the Activity [15] of the same compound?
Answer: 1.05%

Question: What about the Activity [16] of the same compound?
Answer: 44.4%

Question: And the IC50 [17]?
Answer: 7 µM

Question: What about the viability at 20 µM [18] of the same compound?
Answer: 2%

Question: What about the solubility [19] of the same compound?
Answer: Insoluble

Question: What about the Activity [20] of the same compound?
Answer: 3.05%

Question: And the Activity [21]?
Answer: Active

Question: What about the viability at 5 µM [22] of the same compound?
Answer: 82.5%

Question: And the Activity [23]?
Answer: 0.21%

Question: And the viability at 5 µM [24]?
Answer: 24.2%

Question: And the Activity [25]?
Answer: Active

Question: And the IC50 [26]?
Answer: 7.6 µM

Question: And the viability at 50 µM [27]?
Answer: 1.32%

Question: And the IC50 [28]?
Answer: 7.7 µM

Question: What about the Activity [29] of the same compound?
Answer: 9.13%

Question: And the viability at 10 µM [30]?
Answer: 1.9%

Question: And the Activity [31]?
Answer: Active

Question: What about the IC50 [32] of the same compound?
Answer: 5.7 µM

Question: And the viability at 5 µM [33]?
Answer: 50.7%

Question: With `COc1cccc2c1C(=O)c1c(O)c3c(c(O)c1C2=O)C[C@@](O)(C(=O)CO)C[C@@H]3O[C@H]1C[C@H](N)[C@H](O)[C@H](C)O1.Cl` [DOXORUBICIN HYDROCHLORIDE] as the compound, how does the “Ratio IC50” value [34] read?
Answer: 300

Question: What about the IC50 [9] of the same compound?
Answer: 4.89 µM

Question: What about the “Ratio IC50” value [35] of the same compound?
Answer: 50

Question: What about the IC50 [26] of the same compound?
Answer: 0.82 µM

Question: And the IC50 [28]?
Answer: 10.6 µM

Question: And the IC50 [32]?
Answer: 0.016 µM

Question: What does the source list for `C=C1CC[C@H]2C(=C)CC[C@H]3C(=C)C(=O)O[C@@H]3[C@@H]12` [DEHYDROCOSTUSLACTONE]?
Answer: IC50 [9]: 5.1 µM; IC50 [17]: 5.3 µM; IC50 [26]: 10.5 µM; IC50 [28]: 6.6 µM; IC50 [32]: 3.7 µM

Question: Which results are given for `CN(C)C[C@@H]1C(=O)O[C@H]2[C@H]1CCC1(CC1)[C@@H]1CCC3(CC3)[C@H]21.O=C(O)/C=C/C(=O)O`?
Answer: Activity [36]: Active; Activity [37]: Non-toxic; TGI [38]: Active
